For data set [1], the system named is obese female hyperinsulinemic nondiabetic Zucker rats. Kind of data set: oral glucose tolerance test after 35 days treatment of obese Zucker rats. Particulars: FIG. 1. It counts as in vivo, rat. As for the experimental part: 14 obese female hyperinsulinemic nondiabetic Zucker rats were treated with the test compound 6-chloro-3-(1-methylcylodopropyl)amino-4H-thieno[3,2-e]-1,2,4-thiadiazine 1,1-dioxide and 14 were treated with vehicle for 35 days. After treatment, oral glucose tolerance was tested and found to be improved in animals treated with 6-chloro-3-(1-methylcylodopropyl)amino-4H-thieno[3,2-e]-1,2,4-thiadiazine 1,1-dioxide and the improvement was associated with decreased hyperinsulinemia.

The test system of data set [2] is women with Polycystic Ovary Syndrome (PCOS). The following applies: Nestler et al. 1989; cited from earlier work.
In data set [3] the test system is KATP-channels on pancreatic β-cells. The following applies: by activation of KATP-channels on pancreatic β-cells; Pirotte et al. 1993, 1994; cited from earlier work.

We go through two compounds from patent US20030125323A1, “Use of selective potassium channel openers” (priority 2001, published 2003).

`CC1(NC2=NS(=O)(=O)c3sc(Cl)cc3N2)CC1` [6-chloro-3-(1-methylcylodopropyl)amino-4H-thieno[3,2-e]-1,2,4-thiadiazine 1,1-dioxide]: the hyperinsulinemia entry in data set [1] (associated with the improved glucose tolerance) is “decreased”. Besides, the oral glucose tolerance entry in data set [1] (compared with vehicle) is “improved”.

For the compound `CC1=Nc2ccc(Cl)cc2S(=O)(=O)N1` [diazoxide, 7-chloro-3-methyl-2H-1,2,4-benzothiadiazine 1,1-dioxide], in data set [2], the “concentrations of serum testosterone” value is listed as “reduce”, the “glycaemia (adverse effect due to the reduction in insulin)” value is reported as “significantly hyperglycemic” and the hyperinsulinaemia entry is reported as “reduce”. Besides, in data set [3], the insulin release entry was “inhibit”.
